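All cell lines were grown in 96-well plates and treated with compound for 48 hours. At the GI50, growth is halved.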 The source made the active and inactive calls. No stated cut-off is given here; in the data, active = GI50 up to about 1.1 µM and inactive = higher.
Key:
Experiment in all cases: growth of human tumour cells (NCI), 48 h
SNB-78 = system: SNB-78
RXF 393 = system: RXF 393
OVCAR-4 = system: OVCAR-4
DMS-273 = system: DMS-273
OVCAR-3 = system: OVCAR-3
A498 = system: A498
Malme-3M = system: Malme-3M
RPMI-8226 = system: RPMI-8226
HOP-92 = system: HOP-92
SK-MEL-2 = system: SK-MEL-2
U-251 = system: U-251
KM-20L2 = system: KM-20L2
A549 = system: A549
HCT-15 = system: HCT-15
SN12C = system: SN12C
NCI-H522 = system: NCI-H522
HL-60 = system: HL-60
HT-29 = system: HT-29
M14 = system: M14
ACHN = system: ACHN

SMILES	GI50 (SNB-78)	GI50 (RXF 393)	GI50 (OVCAR-4)	GI50 (DMS-273)	GI50 (OVCAR-3)	GI50 (A498)	GI50 (Malme-3M)	GI50 (RPMI-8226)	GI50 (HOP-92)	GI50 (SK-MEL-2)	GI50 (U-251)	GI50 (KM-20L2)	GI50 (A549)	GI50 (HCT-15)	GI50 (SN12C)	GI50 (NCI-H522)	GI50 (HL-60)	GI50 (HT-29)	GI50 (M14)	GI50 (ACHN)
COc1cc(/C=C/c2ccc(OC)c(OC)c2)oc(=O)c1	150 µM (inactive)	57 µM (inactive)	> 250 µM (inactive)	> 110 µM (inactive)	> 250 µM (inactive)	> 169 µM (inactive)	> 250 µM (inactive)	> 250 µM (inactive)	122 µM (inactive)	> 213 µM (inactive)	199 µM (inactive)	> 167 µM (inactive)	> 250 µM (inactive)	> 250 µM	> 250 µM (inactive)	> 195 µM (inactive)	> 91.6 µM (inactive)	> 250 µM (inactive)		
CC(C)NC(=O)OCc1c(CO)c2c(n1C)-c1ccccc1CC2	33.8 µM (inactive)	23.5 µM (inactive)	26.3 µM (inactive)	26.8 µM (inactive)	22.4 µM (inactive)	55.5 µM (inactive)	23.9 µM (inactive)	17.7 µM (inactive)	18.2 µM (inactive)	37.1 µM (inactive)	27 µM (inactive)	30.8 µM (inactive)	40.6 µM (inactive)	23.3 µM	24.3 µM (inactive)	16.7 µM (inactive)	16.4 µM (inactive)	24.5 µM (inactive)		
Cc1ccc(C2COc3cc(O)c(O)cc3C2)cc1 (configuration not stated)	31.6 µM (inactive)	11.3 µM (inactive)	20.4 µM (inactive)	16.2 µM (inactive)	13.8 µM (inactive)	86.7 µM (inactive)	18.7 µM (inactive)	7.11 µM (inactive)	14.4 µM (inactive)	19.2 µM (inactive)	17.7 µM (inactive)	35.9 µM (inactive)	43.6 µM (inactive)	15 µM	20.7 µM (inactive)	4.06 µM (inactive)	1.64 µM (inactive)	29.7 µM (inactive)		
C[n+]1c2ccccc2c(NC(CS)C(=O)O)c2ccccc21 (configuration not stated)	45.2 µM (inactive)	22.3 µM (inactive)	29.8 µM (inactive)	22.1 µM (inactive)	17.7 µM (inactive)	15.6 µM (inactive)	24.2 µM (inactive)	18.6 µM (inactive)	20.2 µM (inactive)	28.2 µM (inactive)	24.5 µM (inactive)	29.4 µM (inactive)	22.6 µM (inactive)	28.1 µM	52 µM (inactive)	20.3 µM (inactive)	17.6 µM (inactive)	28.9 µM (inactive)	27.5 µM (inactive)	36.5 µM (inactive)
CCN1CCCC(NCc2c3ccccc3c(CNC3CCCN(CC)C3)c3ccccc23)C1 (configuration not stated)	22.3 µM (inactive)	3.48 µM (inactive)	5.2 µM (inactive)	5.56 µM (inactive)	3.8 µM (inactive)	12.6 µM (inactive)	21.6 µM (inactive)	10.2 µM (inactive)	11.1 µM (inactive)	5.16 µM (inactive)	11.8 µM (inactive)	3.76 µM (inactive)	> 48 µM (inactive)	12.5 µM	8.91 µM (inactive)	2.49 µM (inactive)	7.03 µM (inactive)	2.6 µM (inactive)		
CCCCS(=N)(=O)CC[C@H](N)C(=O)O (some centres not stated) [BUTHIONINE SULFOXIME]	> 5000 µM (inactive)	> 5000 µM (inactive)	2290 µM (inactive)	> 5000 µM (inactive)	> 4130 µM (inactive)	4820 µM (inactive)	> 5000 µM (inactive)	2460 µM (inactive)	171 µM (inactive)	> 5000 µM (inactive)	> 5000 µM (inactive)	> 5000 µM (inactive)	> 5000 µM (inactive)	4250 µM	> 5000 µM (inactive)	140 µM (inactive)	665 µM (inactive)	> 5000 µM (inactive)	> 5000 µM (inactive)	> 5000 µM (inactive)
